Measurements taken from US8158621B2, “Methods of treating or preventing autoimmune diseases with 2,4-pyrimidinediamine compounds” (Rigel Pharmaceuticals, Inc., priority 2002, dated 2012).

Test system: Human Jurkat T-cells (clone N)
Test: Jurkat T-cell activation (anti-TCR, CD69 upregulation)
Assay type: cell-based
Conditions: not given
How it was run: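 Readout is CD69 upregulation by flow cytometry (anti-CD69-APC, 20 min at 4 °C) after 20 h anti-TCR (C305, 500 ng/ml) stimulation at 37 °C.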

| Structure (SMILES) | IC50 |
| --- | --- |
| CNC(=O)COc1cccc(Nc2nc(Nc3cc(OC)cc(OC)c3)ncc2F)c1 [Compound R926810] | 5.07 µM |
| CNC(=O)COc1cccc(Nc2ncc(F)c(Nc3ccc(F)c(C(F)(F)F)c3)n2)c1 [Compound R926838] | 10.7 µM |
| O=C(COc1cccc(Nc2ncc(F)c(Nc3cccc(O)c3)n2)c1)N1CCNCC1 [Compound R926772] | 2.04 µM |
| Cc1cnc(Nc2ccc(OCc3nnn(C)n3)cc2)nc1Nc1cccc(O)c1 [Compound R920893] | 1.4 µM |
| CNC(=O)COc1ccc(Nc2ncc(F)c(Nc3ccc4c(c3)OCCO4)n2)cc1 [Compound R909240] | 2.85 µM |
| CNC(=O)COc1cccc(Nc2ncc(F)c(Nc3ccc(OC)c(O)c3)n2)c1 [Compound R926834] | 2.57 µM |
| O=C(COc1cccc(Nc2ncc(F)c(Nc3ccc4c(c3)OCCO4)n2)c1)NC1CCCCC1 [Compound R926765] | 8 µM |
| CNC(=O)COc1cccc(Nc2ncc(F)c(Nc3ccc4c(c3)N(C)CCO4)n2)c1 [Compound R909259] | > 10 µM |
| CNC(=O)COc1cccc(Nc2ncc(F)c(Nc3ccc(OC(F)(F)F)cc3)n2)c1 [Compound R926879] | 2.55 µM |
| CC(C)(C)c1ccc(Nc2nc(Nc3cccc(OCC(=O)O)c3)ncc2F)cc1 [Compound R926726] | > 10 µM |
| CCOC(=O)c1ncn2c1COc1c(Nc3nc(Nc4cccc(OCC(=O)NC)c4)ncc3F)cccc1-2 [Compound R909265] | 12 µM |
| CNC(=O)COc1cc(Nc2ncc(F)c(Nc3ccc(C)c(O)c3)n2)ccc1C [Compound R926759] | 1.71 µM |
| CCOC(=O)c1cnc(Nc2ccc(OCC(=O)NCC3CC3)cc2)nc1Nc1cccc(O)c1 [Compound R925838] | > 10 µM |
| O=C(COc1cccc(Nc2ncc(F)c(Nc3ccc4c(c3)OCCO4)n2)c1)NCCO [Compound R926505] | 1.15 µM |
| Fc1cnc(Nc2cccc(C(F)(F)F)c2)nc1Nc1ccc2c(c1)OCCO2 [Compound R926805] | > 10 µM |
| Fc1cnc(Nc2ccc3c(c2)OCCO3)nc1Nc1ccc(OCCN2CCOCC2)cc1 [Compound R926711] | 3.79 µM |
| O=C(COc1ccc(Nc2ncc(F)c(Nc3ccc(OCC(=O)N4CCCC4)cc3)n2)cc1)N1CCCC1 [Compound R926563] | > 10 µM |
| CCOC(=O)COc1ccc(Nc2ncc(F)c(Nc3cccc(O)c3)n2)cc1 [Compound R926395] | 17.7 µM |
| CNC(=O)COc1cc(Nc2ncc(F)c(Nc3ccc(C)c(OCC(=O)NC)c3)n2)ccc1C [Compound R926760] | 10.2 µM |
| CCOC(=O)CSc1ccc(Nc2ncc(F)c(Nc3ccc4c(c3)OCCO4)n2)cn1 [Compound R926727] | > 10 µM |
| CCOC(=O)COc1ccc(Nc2nc(Nc3ccc(OCC(=O)OCC)cc3)c([N+](=O)[O-])c(C(=O)OCC)n2)cc1 [Compound R926566] | > 10 µM |
| CCOC(=O)COc1cccc(Nc2nc(Nc3cc(OC)cc(OC)c3)ncc2F)c1 [Compound R926804] | > 10 µM |

The remaining lines, values ahead:

| IC50 | Structure (SMILES) |
| --- | --- |
| 22 µM | CNc1ncc(F)c(Nc2ccc3c(c2)OCCO3)n1 [Compound R950189] |
| > 10 µM | COC(=O)c1ccc(Cn2ncc3ccc(Nc4ncc(F)c(Nc5ccc6c(c5)OCCO6)n4)cc32)c(OC)c1 [Compound R935320] |
| 3.48 µM | CNC(=O)COc1ccc(Nc2ncc(F)c(Nc3ccc4c(cnn4C)c3)n2)cc1 [Compound R935216] |
| 11 µM | CNC(=O)COc1cccc(Nc2ncc(F)c(Nc3ccc(OC)c(C(=O)NC)c3)n2)c1 [Compound R940306] |
| > 10 µM | COc1cc(C(=O)NS(=O)(=O)c2ccccc2C)ccc1Cn1ncc2ccc(Nc3ncc(F)c(Nc4ccc5c(c4)OCCO5)n3)cc21 [Compound R935323] |
| 4.68 µM | CNC(=O)Cn1ncc2ccc(Nc3ncc(F)c(Nc4ccc5c(c4)OCCO5)n3)cc21 [Compound R935212] |
| 6.71 µM | CC(C)(C)c1cccc(Nc2nc(Nc3cccc(OCCO)c3)ncc2F)c1 [Compound R940282] |
| 6.08 µM | COC(=O)COc1ccc(Nc2nc(Nc3ccc(OCC(N)=O)cc3)ncc2F)cc1 [Compound R945060] |
| 3.38 µM | Cn1cc2cc(Nc3ncc(F)c(Nc4ccc5c(c4)OCCO5)n3)ccc2n1 [Compound R935300] |
| > 10 µM | CC1(C)CN(c2ccccn2)c2cc(Nc3nc(Cl)ncc3F)ccc2O1 [Compound R940336] |
| 5.43 µM | Cc1nc(COc2cccc(Nc3nc(Nc4ccc5c(c4)OCCO5)ncc3F)c2)no1 [Compound R945137] |
| 5.65 µM | CNC(=O)C(C)(C)Oc1cccc(Nc2ncc(F)c(Nc3cccc(O)c3)n2)c1 [Compound R926913] |
| 4.15 µM | CC(C)(CO)c1ccc(Nc2ncc(F)c(Nc3ccc4oc(CO)cc4c3)n2)cc1 [Compound R935177] |
| 2.88 µM | CNC(=O)COc1ccc(Nc2nc(Nc3ccc4c(c3)OCCO4)ncc2F)cc1 [Compound R945173] |
| 3.38 µM | Fc1cnc(Nc2ccc3c(c2)OCCCO3)nc1Nc1ccc2c(c1)OCCCO2 [Compound R935162] |
| 19.2 µM | COC(=O)c1cc2cc(Nc3nc(Nc4cccc(OCc5noc(C)n5)c4)ncc3F)ccc2o1 [Compound R945131] |
| > 10 µM | COC(=O)COc1ccc(Nc2ncc(F)c(Nc3ccc4c(cnn4C)c3)n2)cc1 [Compound R935209] |
| 0.668 µM | CC(C)Oc1ccc(Nc2nc(Nc3ccc4c(cnn4CCO)c3)ncc2F)cc1 [Compound R935255] |
| 10.5 µM | O=[N+]([O-])c1cccc(Nc2nc(Nc3ccc4c(c3)NCCO4)ncc2F)c1 [Compound R950253] |
| 4.08 µM | Cn1nnc(COc2ccc(Nc3ncc(F)c(Nc4ccc(OCc5nnn(C)n5)cc4)n3)cc2)n1 [Compound R945046] |
| 10.1 µM | COc1ccc(Nc2nc(NC3CCN(Cc4ccccc4)CC3)ncc2F)cc1OC [Compound R940263] |
| > 10 µM | CNC(=O)COc1cccc(Nc2ncc(F)c(Nc3ccc(C)c(OC)c3)n2)c1 [Compound R926902] |
| 1.27 µM | OCCCn1ncc2ccc(Nc3ncc(F)c(Nc4ccc5oc(CO)cc5c4)n3)cc21 [Compound R935308] |
| > 10 µM | CCOC(=O)C(C)(C)c1ccc(Nc2nc(Nc3ccc(OC(C)C)cc3)ncc2F)cc1 [Compound R935167] |
| 12.9 µM | CN(C)CCCNC(=O)CNc1cccc(Nc2ncc(F)c(Nc3cccc(NCCO)c3)n2)c1 [Compound R950237] |

Same assay, conditions: Homo sapiens

| Structure (SMILES) | IC50 |
| --- | --- |
| CCNC(=O)Oc1cccc(Nc2ncc(F)c(Nc3cccc(O)c3)n2)c1 [Compound R926928] | > 10 µM |

Same assay, conditions: Homo sapiens, Jurkat

| Structure (SMILES) | IC50 |
| --- | --- |
| O=C(O)c1cc2cc(Nc3ncc(F)c(Nc4ccc5c(c4)OCCO5)n3)ccc2o1 [Compound R926698] | > 10 µM |
| Oc1cccc(Nc2ncc(F)c(NCc3csc4ccc(Cl)cc34)n2)c1 [Compound R926722] | > 10 µM |
| Nc1cccc(Nc2ncc(F)c(Nc3cccc(N)c3)n2)c1 [Compound R950107] | 5.42 µM |
| COc1ccc(Nc2ncc(F)c(Nc3ccc(OC)c(O)c3)n2)cc1O [Compound R926339] | 2.15 µM |
| CCOc1ccc(Nc2ccnc(Nc3ccc(OCC)cc3)n2)cc1 [Compound R926069] | 4.31 µM |
| CN(C)c1ccc(Nc2ncc(F)c(Nc3ccc(N(C)C)cc3)n2)cc1 [Compound R926086] | 6.63 µM |
| CCc1ccc(Nc2ncc(F)c(Nc3ccc(CC)cc3)n2)cc1 [Compound R926234] | > 10 µM |
| COc1ccc(-c2ccccc2)cc1Nc1ccnc(Nc2cc(-c3ccccc3)ccc2OC)n1 [Compound R925805] | > 10 µM |
| COc1ccc(Nc2ncc(F)c(Nc3ccc(OC)cc3)n2)cc1 [Compound R926017] | 20.8 µM |
| C=CCNc1ncc(Br)c(Nc2cccc(O)c2)n1 [Compound R925822] | > 10 µM |
| O=C(O)C1CCC(Nc2nc(Nc3ccc4c(c3)OCCO4)ncc2F)CC1 (stereo not drawn) [Compound R925795] | > 10 µM |
| COC(=O)c1cc2cc(Nc3ncc(F)c(Nc4cccc(OC(C)C)c4)n3)ccc2o1 [Compound R926487] | 48.9 µM |
| Oc1cccc(Nc2ncc(F)c(Nc3cccc(OC(F)(F)F)c3)n2)c1 [Compound R926885] | > 10 µM |
| CC(C)(C)c1ccc(Nc2nc(Nc3ccc4c(c3)CC(C(=O)O)O4)ncc2F)cc1 (stereo not drawn) [Compound R926720] | > 10 µM |
| N#Cc1cnc(Nc2ccc3c(c2)OCCO3)nc1Nc1ccc2c(c1)OCCO2 [Compound R925773] | 14.4 µM |
| COc1cc(Nc2nc(Nc3cccc(O)c3)ncc2F)cc(OC)c1 [Compound R926802] | 5.91 µM |
| Oc1ccc(Nc2ncc(F)c(Nc3ccc(O)cc3F)n2)c(F)c1 [Compound R926683] | 7.63 µM |
| Brc1cnc(Nc2ccccc2-c2ccccc2)nc1Nc1ccccc1-c1ccccc1 [Compound R925798] | > 10 µM |
| CCOC(=O)c1nc(Nc2cccc(O)c2)nc(Nc2cccc(O)c2)c1[N+](=O)[O-] [Compound R925849] | 8.02 µM |

Continued, values first:

| IC50 | Structure (SMILES) |
| --- | --- |
| > 10 µM | Fc1cc(Nc2ncc(F)c(Nc3ccc4c(c3)OCCO4)n2)cc(C(F)(F)F)c1 [Compound R926894] |
| > 10 µM | CCOC(=O)C1CCN(C(=O)c2cccc(Nc3nc(Nc4cccc(O)c4)ncc3F)c2)CC1 [Compound R926940] |
| 24.1 µM | Nc1cccc(Nc2nc(Nc3cccc(O)c3)ncc2F)c1 [Compound R950163] |
| > 10 µM | Fc1cnc(NC(c2ccc(Cl)cc2)c2ccc(Cl)cc2)nc1NC(c1ccc(Cl)cc1)c1ccc(Cl)cc1 [Compound R935006] |
| 11.3 µM | Oc1cccc(Nc2nc(Nc3cc(Cl)c(O)c(Cl)c3)ncc2F)c1 [Compound R926890] |
| 5.92 µM | COc1ccc(Nc2nc(Nc3cccc(O)c3)ncc2F)c(OC)n1 [Compound R926887] |
| > 10 µM | COC(=O)c1cc(Nc2ncc(F)c(Nc3ccc(O)c(C(=O)OC)c3)n2)ccc1O [Compound R945043] |
| > 10 µM | COC(=O)c1cc2cc(Nc3ncc(F)c(Nc4cccc(C(C)(C)C)c4)n3)ccc2o1 [Compound R940281] |
| 1.98 µM | OCCOc1cccc(Nc2nc(Nc3ccc4c(c3)OCCO4)ncc2F)c1 [Compound R935176] |
| > 10 µM | COC(=O)c1cccc(Nc2ncc(F)c(Nc3cccc(C(=O)OC)c3)n2)c1 [Compound R945035] |
| > 10 µM | O=C(O)c1ccc(Nc2ncc(F)c(Nc3ccc(C(=O)O)cc3)n2)cc1 [Compound R945037] |
